In data set [1] the target is T1, PXR (NR1I2) ligand binding domain (Homo sapiens, UniProt O75469).
T1 sequence (O75469 whole entry): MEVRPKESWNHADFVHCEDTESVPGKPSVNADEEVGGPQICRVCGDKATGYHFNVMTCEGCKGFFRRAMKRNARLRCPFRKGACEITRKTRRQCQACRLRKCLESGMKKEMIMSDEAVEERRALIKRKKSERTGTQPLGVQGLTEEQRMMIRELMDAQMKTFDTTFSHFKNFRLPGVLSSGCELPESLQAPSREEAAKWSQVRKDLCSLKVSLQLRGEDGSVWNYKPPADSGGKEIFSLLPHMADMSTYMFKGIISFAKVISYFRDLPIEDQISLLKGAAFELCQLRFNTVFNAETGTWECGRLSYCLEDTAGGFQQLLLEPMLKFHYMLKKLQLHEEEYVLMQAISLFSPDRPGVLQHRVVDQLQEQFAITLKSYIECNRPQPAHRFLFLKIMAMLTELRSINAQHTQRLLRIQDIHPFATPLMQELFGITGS
Put plainly: Inhibition of BODIPY FL vindoline binding to recombinant human GST-tagged PXR LBD (111 to 434 residues) expressed in baculovirus infected insect cells at 10 uM incubated for 1 mins under shaking condition followed by 60 mins under dark condition by TR-FRET assay relative to control. The note with it: probe BODIPY FL vindoline, time 61 min. (Time-resolved FRET reads energy transfer from a long-lived donor to a nearby acceptor.)

The target in data set [2] is T2, Nuclear receptor subfamily 1 group I member 2 (Homo sapiens, UniProt O75469).
T2 sequence (O75469 whole entry): T1 sequence (O75469 whole entry)
The data set can be described thus: Inverse agonist activity at human PXR in human HepG2 cells co-expressing luciferase gene under control of CYP3A4 promoter assessed as inhibition of receptor basal activity incubated for 24 hrs by luminescence based analysis. The data set is classed as cell-based.

Data set [3] has as its target T2, Nuclear receptor subfamily 1 group I member 2. The data set can be described thus: Agonist activity at human PXR in human HepG2 cells co-expressing luciferase gene under control of CYP3A4 promoter assessed as transcriptional activation at 30 uM incubated for 24 hrs by luminescence based analysis. The note with it: hepg2, 24 h. The data set is classed as cell-based.

Data set [4] deals with T3, PXR (NR1I2) (Homo sapiens, UniProt O75469).
T3 sequence (O75469 whole entry): T1 sequence (O75469 whole entry)
The data set can be described thus: Inverse agonist activity at human PXR in human HepG2 cells co-expressing luciferase gene under control of CYP3A4 promoter assessed as inhibition in receptor basal activity at 10 uM incubated for 24 hrs by luminescence based analysis relative to control. It counts as cell-based.

In data set [5] the target is T2, Nuclear receptor subfamily 1 group I member 2. The data set can be described thus: Agonist activity at human PXR in human HepG2 cells co-expressing luciferase gene under control of CYP3A4 promoter assessed as transcriptional activation at 10 uM incubated for 24 hrs by luminescence based analysis relative to control.
Data set [6] shares this target. Put plainly: Inverse agonist activity at human PXR in human HepG2 cells co-expressing luciferase gene under control of CYP3A4 promoter assessed as inhibition in receptor basal activity at 30 uM incubated for 24 hrs by luminescence based analysis. Particulars: hepg2, 24 h; call rule not given here.
Data set [7] has the same target. Put plainly: Antagonist activity at human PXR in human HepG2 cells co-expressing luciferase gene under control of CYP3A4 promoter assessed as inhibition in rifampicin-induced receptor activation at 30 uM incubated for 24 hrs by luminescence based analysis. The data set is classed as cell-based. Particulars: hepg2, 24 h.
The target is the same in data set [8]. Put plainly: Inhibition of BODIPY FL vindoline binding to recombinant human GST-tagged PXR LBD (111 to 434 residues) expressed in baculovirus infected insect cells incubated for 1 mins under shaking condition followed by 60 mins under dark condition by TR-FRET assay. The note with it: for inhibition (INH): human, 1.017 h, time 61 min.
The target is the same in data set [9]. Put plainly: Agonist activity at human PXR in human HepG2 cells co-expressing luciferase gene under control of CYP3A4 promoter assessed as transcriptional activation incubated for 24 hrs by luminescence based analysis.
For data set [10], the target named is T3, PXR (NR1I2). Put plainly: Antagonist activity at human PXR in human HepG2 cells co-expressing luciferase gene under control of CYP3A4 promoter assessed as inhibition in rifampicin-induced receptor activation at 10 uM incubated for 24 hrs by luminescence based analysis relative to control. The data set is classed as cell-based.

A word on the inhibition: it is the drop in the measured response relative to a control, in per cent. In general, IC50 refers to the concentration at which inhibition is half-maximal. Turning to `COc1ccc(OC)c(-n2nnc(C(=O)Nc3cc(C(C)(C)C)ccc3OCCN(C)C)c2C)c1`, the inhibition at 1.017 h, 10 µM in data set [1] was 87%. In data set [2], the half-inhibitory concentration (IC50) turned out to be 1800 nM. Besides, the Activity result in data set [3] is listed as “Not Active”.

Regarding `CCOc1ccc(C(C)(C)C)cc1NC(=O)c1nnn(-c2cc(OC)ccc2OC)c1C`, the inhibition at 1.017 h, 10 µM in data set [1] stood at 73%. Also, the inhibition at 24 h, 10 µM in data set [4] is 118%. Further, the Activity result in data set [3] was “Not Active”.

As to `CCCC(C)Oc1ccc(C(C)(C)C)cc1NC(=O)c1nnn(-c2cc(OC)ccc2OC)c1C` (racemic), the inhibition at 1.017 h, 10 µM in data set [1] is 90%. In data set [4], the inhibition at 24 h, 10 µM is 117%. Besides, the Activity entry in [3] is reported as “Not Active”.

As for `COc1ccc(OC)c(-n2nnc(C(=O)Nc3cccc(C)c3)c2C)c1`, the inhibition at 1.017 h, 10 µM in [1] was 52%. The activity at 24 h, 10 µM in data set [5] amounted to 30%. For the same compound, the INH result in data set [6] is on record as “Not Active”. In data set [7], the “inhibition (INH)” value is “Not Active”.

Broadly, the EC50 is the concentration needed to bring the measured effect to its halfway point. Turning to `COc1ccc(OC)c(-n2nnc(C(=O)Nc3ccccc3)c2C)c1`, the “inhibition (INH)” value in [8] and in data set [7] was “Not Active” each time. Besides, the concentration giving a half-maximal response (EC50) in [9] stood at 25000 nM. Moreover, in data set [5], the activity at 24 h, 10 µM was 33%. Besides, the INH result in data set [6] was “Not Active”.

Regarding `CCCOc1ccc(C(C)(C)C)cc1NC(=O)c1nnn(-c2cc(OC)ccc2OC)c1C`, the inhibition at 1.017 h, 10 µM in data set [1] was found to be 79%. Moreover, the inhibition at 24 h, 10 µM in data set [4] came to 114%. Further, the Activity result in data set [3] is reported as “Not Active”.

Turning to `COc1ccc(OC)c(-n2nnc(C(=O)Nc3cc(C(C)(C)C)ccc3OCCN3CCOCC3)c2C)c1`, in data set [1], the inhibition at 1.017 h, 10 µM is 68%. In addition, the IC50 in data set [2] came out at 1400 nM. Moreover, the inhibition at 24 h, 10 µM in data set [4] stood at 81%. Further, in data set [3], the Activity entry is listed as “Not Active”.

Consider `CCCCOc1ccc(NC(=O)c2nnn(-c3cc(OC)ccc3OC)c2C)cc1C(C)(C)C`, for which the “inhibition (INH)” value in data set [8] was “Not Active”. Also, in data set [4], the inhibition at 24 h, 10 µM stood at 73%.

For `COc1ccc(OC)c(-n2nnc(C(=O)Nc3cc(C(C)(C)C)ccc3N)c2C)c1`, the “inhibition (INH)” value in data set [8] and in [7] was “Not Active” in each case. In [5], the activity at 24 h, 10 µM stood at 25%. Besides, the INH entry in [6] is “Not Active”.

For the compound `CCCCOc1ccc(C(C)(C)C)cc1NC(=O)c1nnn(-c2ccc3c(c2)OCO3)c1C`, the “inhibition (INH)” value in data set [8] and in [7] was “Not Active” in each case. Further, in data set [5], the activity at 24 h, 10 µM was found to be 43%. Also, the INH result in data set [6] was “Not Active”.

Turning to `CCCCOc1ccc(C(C)(C)C)cc1NC(=O)c1nnn(-c2cc(OC)ccc2OC)c1C`, in [1], the inhibition at 1.017 h, 10 µM is 90%. The inhibition at 24 h, 10 µM in data set [4] was determined as 89%. Moreover, in data set [3], the Activity result is listed as “Not Active”.

For the compound `COc1ccc(OC)c(-n2nnc(C(=O)Nc3cc(C(C)(C)C)ccc3NC(C)=O)c2C)c1`, the inhibition at 1.017 h, 10 µM in data set [1] stood at 60%. The activity at 24 h, 10 µM in data set [5] amounted to 60%. For the same compound, the INH result in data set [6] was “Not Active”. Also, the “inhibition (INH)” value in data set [7] was “Not Active”.

In the case of `COc1ccc(OC)c(-n2nnc(C(=O)Nc3cc(B4OC(C)(C)C(C)(C)O4)cc(C(C)(C)C)c3)c2C)c1`, the inhibition at 1.017 h, 10 µM in data set [1] is 67%. Moreover, the inhibition at 24 h, 10 µM was 138% in [4] and 104% in data set [10]. Besides, the Activity entry in data set [3] is recorded as “Not Active”.

For the compound `COc1ccc(OC)c(-n2nnc(C(=O)Nc3cccc(N4CCCCC4)c3)c2C)c1`, the inhibition at 1.017 h, 10 µM in data set [1] is 50%. The inhibition at 24 h, 10 µM in data set [4] was found to be 36%. Further, the Activity result in data set [3] is “Not Active”. In addition, the “inhibition (INH)” value in [7] was “Not Active”.

As for `COc1ccc(OC)c(-n2nnc(C(=O)Nc3cc(N(C)C)cc(C(C)(C)C)c3)c2C)c1`, the inhibition at 24 h, 10 µM in data set [10] turned out to be 110%. Besides, the Activity result in [3] was “Not Active”.

`COc1ccc(OC)c(-n2nnc(C(=O)Nc3ccc(NC(C)=O)c(C(C)(C)C)c3)c2C)c1`: the inhibition at 1.017 h, 10 µM in data set [1] was 65%. Besides, the EC50 in data set [9] is 2000 nM. In addition, the activity at 24 h, 10 µM in data set [5] stood at 50%. The INH entry in [6] is listed as “Not Active”. In data set [7], the “inhibition (INH)” value is reported as “Not Active”.

As to `CCC[C@@H](C)Oc1ccc(C(C)(C)C)cc1NC(=O)c1nnn(-c2cc(OC)ccc2OC)c1C`, the inhibition at 1.017 h, 10 µM in [1] stood at 81%. Further, the inhibition at 24 h, 10 µM in data set [4] was found to be 91%. In data set [3], the Activity entry is given as “Not Active”.

With `CCCCOc1ccc(C(C)(C)C)cc1NC(=O)c1nnn(-c2cc(OC)ccc2C)c1C`, the inhibition at 1.017 h, 10 µM in data set [1] is 10%. In data set [9], the EC50 is 1660 nM. Moreover, in data set [5], the activity at 24 h, 10 µM amounted to 16%. Further, in data set [6], the INH entry is given as “Not Active”. Further, the “inhibition (INH)” value in data set [7] is given as “Not Active”.

Take `COc1ccc(OC)c(-n2nnc(C(=O)Nc3ccc(N)c(C(C)(C)C)c3)c2C)c1`: in data set [1], the inhibition at 1.017 h, 10 µM was 86%. The activity at 24 h, 10 µM in [5] worked out at 33%. In addition, the INH entry in data set [6] is “Not Active”. Moreover, in data set [7], the “inhibition (INH)” value was “Not Active”.

Regarding `CCCCOc1ccc(C(C)(C)C)cc1NC(=O)c1nnn(-c2cc(OC)cc(OC)c2)c1C`, the “inhibition (INH)” value in data set [8] and in data set [7] was “Not Active” in each case. Moreover, the activity at 24 h, 10 µM in data set [5] stood at 32%. Further, in [6], the INH result is “Not Active”.

With `CCCCN(CCCC)c1cc(NC(=O)c2nnn(-c3cc(OC)ccc3OC)c2C)cc(C(C)(C)C)c1`, the inhibition at 24 h, 10 µM in data set [10] was 82%. Further, in data set [3], the Activity result is recorded as “Not Active”.

As for `CNc1cc(NC(=O)c2nnn(-c3cc(OC)ccc3OC)c2C)cc(C(C)(C)C)c1`, the inhibition at 24 h, 10 µM in data set [10] was 109%. Further, the Activity entry in [3] is “Not Active”.

For the compound `CCC[C@@H](C)Oc1ccc(C(C)(C)C)cc1NC(=O)c1nnn(-c2cc(C)ccc2OC)c1C`, in [8], the concentration for half-maximal inhibition (IC50) amounted to 11 nM. Also, the concentration giving a half-maximal response (EC50) in [9] is 8.1 nM. Further, the INH entry in [6] was “Not Active”.

The values are drawn from ChEMBL document CHEMBL5236619, “Design and Optimization of 1H-1,2,3-Triazole-4-carboxamides as Novel, Potent, and Selective Inverse Agonists and Antagonists of PXR” (J Med Chem, 2022).
